Results reported in PMC11901818, “Salicylaldehyde Benzoylhydrazones with Anticancer Activity and Selectivity: Design, Synthesis, and In Vitro Evaluation” (Molecules, 2025).
Read-outs that look alike come from different tables or passages of the source.

Columns and labels:
[1] = system: HL-60 cells (acute promyelocytic leukemia); assay: Mosmann MTT cell viability test, HL-60; format: cell-based, human; conditions: for IC50: Homo sapiens, HL-60, MTT, 72 h exposure, ± standard deviation; for Selectivity index (SI): IC50 HEK-293 / IC50 HL-60
Description: (§1) The anticancer activity of the dimethoxy hydrazone derivatives was tested against a panel of malignant human cell lines of different tissue origin and molecular characteristics, including several in vitro leukemia models (acute promyelocytic leukemia HL-60; bcr-abl+ chronic myeloid leukemia cell lines BV-173, K-562, and AR-230; and T-cell leukemia SKW-3), as well as the two major phenotypes of human breast adenocarcinoma (hormone-sensitive MCF-7 cells with high progesterone (PR) and estrogen receptor α (ERα) expression and triple-negative breast adenocarcinoma (TNBC) MDA-MB-231 lacking ERα, PR, and human epidermal growth factor receptor 2 (HER2)). The existence and degree of cancer selectivity of the tested compounds were evaluated against normal human embryonic kidney HEK-293 cells.
(§2) The spectrum of anti-tumor activity of the experimental compounds was assessed against human malignant cell lines of leukemic (HL-60, BV-173, K-562, AR-230, and SKW-3) and epithelial (MCF-7 and MDA-MB-231) origin, as well as normal human embryonic kidney cells (HEK-293). All cell lines were purchased from the German Collection of Microorganisms and Cell Cultures (DSMZ GmbH, Braunschweig, Germany), and cell cultures were maintained and grown in the appropriate medium specified by the provider and incubated under standard conditions of 37 °C and 5% humidified CO2 atmosphere.
(§3) The cytotoxicity assessment of the methoxysalicylaldehyde methoxybenzoylhydrazone series was performed using the Mosmann MTT method, a validated technique for evaluating cell viability. Cells in the exponential growth phase were harvested and seeded (100 µL/well) in 96-well plates at a suitable density (3 × 10^5 cells/well for suspension leukemic cultures and 1.5 × 10^5 cells/well for adherent epithelial cells). After a 24 h incubation period, the cells were treated with serial dilutions of the tested compounds within an appropriate concentration range. Following a 72 h exposure, an MTT substrate solution (5 mg/mL in PBS) was added to each well. After an additional 4 h incubation, purple insoluble formazan crystals formed. These crystals were then dissolved in an isopropyl alcohol solution containing 5% formic acid before measuring absorbance at 550 nm using a microplate reader Labexim LMR-1 (Vienna, Austria). The recorded absorbance values were blanked against MTT and isopropanol solution and normalized to the mean value of the untreated control (representing 100% cell viability). The experimental data were analyzed using non-linear regression analysis in GraphPad Prism® software 8.0 (San Diego, CA, USA), from which semi-logarithmic “dose–response” curves were constructed, and the half-inhibitory concentrations (IC50) of the tested compounds were calculated.

[2] = system: BV-173 cells (bcr-abl+ chronic myeloid leukemia); assay: Mosmann MTT cell viability test, BV-173; format: cell-based, human; conditions: for IC50: Homo sapiens, BV-173, MTT, 72 h exposure, ± standard deviation; for Selectivity index (SI): IC50 HEK-293 / IC50 BV-173
Description: as §1, §2, §3

[3] = system: K-562 cells (bcr-abl+ chronic myeloid leukemia); assay: Mosmann MTT cell viability test, K-562; format: cell-based, human; conditions: for IC50: Homo sapiens, K562, K-562, MTT, 72 h exposure, ± standard deviation; for Selectivity index (SI): IC50 HEK-293 / IC50 K-562
Description: as §1, §2, §3

[4] = system: AR-230 cells (bcr-abl+ chronic myeloid leukemia); assay: Mosmann MTT cell viability test, AR-230; format: cell-based, human; conditions: for IC50: AR-230, MTT, 72 h exposure, ± standard deviation; for Selectivity index (SI): IC50 HEK-293 / IC50 AR-230
Description: as §1, §2, §3

[5] = system: SKW-3 cells (T-cell leukemia); assay: Mosmann MTT cell viability test, SKW-3; format: cell-based, human; conditions: for IC50: SKW-3, MTT, 72 h exposure, ± standard deviation; for Selectivity index (SI): IC50 HEK-293 / IC50 SKW-3
Description: as §1, §2, §3

[6] = system: MCF-7 cells (breast ER+ adenocarcinoma); assay: Mosmann MTT cell viability test, MCF-7; format: cell-based, human; conditions: for IC50: Homo sapiens, MCF7, MCF-7, MTT, 72 h exposure, ± standard deviation; for Selectivity index (SI): IC50 HEK-293 / IC50 MCF-7
Description: as §1, §2, §3

[7] = system: MDA-MB-231 cells (TNBC); assay: Mosmann MTT cell viability test, MDA-MB-231; format: cell-based, human; conditions: for IC50: Homo sapiens, MDA-MB-231, MTT, 72 h exposure, ± standard deviation; for Selectivity index (SI): IC50 HEK-293 / IC50 MDA-MB-231
Description: as §1, §2, §3

[8] = system: normal human embryonic kidney cells, HEK-293; assay: Mosmann MTT cell viability test, HEK-293 (selectivity); format: cell-based; conditions: HEK293, HEK-293 normal cells, 72 h exposure, ± standard deviation
Description: as §1, §2, §3

[9] = system: leukemia cell lines (BV-173, K-562, SKW-3, AR-230, and HL-60); assay: MTT test, average over leukemia cell lines; format: cell-based, human; conditions: Avg. leukemia
Description: (§4) The ligand efficiencies (LEs), obtained by the ratio between pIC50 and the number of heavy atoms in the molecule, along with the selectivity indices (SIs), calculated by comparing IC50 of normal cells to IC50 of cancer cells, are presented in Table 4.
as §2, §3

[10] = system: breast cancer cell lines (MCF-7, MDA-MB-231); assay: MTT test, average over breast cancer cell lines; format: cell-based, human; conditions: Avg. breast cancer
Description: as §4, §2
The cytotoxicity assessment of the methoxysalicylaldehyde methoxybenzoylhydrazone series was performed using the Mosmann MTT method, a validated technique for evaluating cell viability. Cells in the exponential growth phase were harvested and seeded (100 µL/well) in 96-well plates at a suitable density (3 × 10^5 cells/well for suspension leukemic cultures and 1.5 × 10^5 cells/well for adherent epithelial cells). After a 24 h incubation period, the cells were treated with serial dilutions of the tested compounds within an appropriate concentration range. […] These crystals were then dissolved in an isopropyl alcohol solution containing 5% formic acid before measuring absorbance at 550 nm using a microplate reader Labexim LMR-1 (Vienna, Austria). The recorded absorbance values were blanked against MTT and isopropanol solution and normalized to the mean value of the untreated control (representing 100% cell viability). The experimental data were analyzed using non-linear regression analysis in GraphPad Prism® software 8.0 (San Diego, CA, USA), from which semi-logarithmic “dose–response” curves were constructed, and the half-inhibitory concentrations (IC50) of the tested compounds were calculated.

[11] = system: all cancer cell lines (five leukemia, MCF-7, MDA-MB-231); assay: MTT test, average over all cancer cell lines; format: cell-based, human; conditions: Avg. all cancers
Description: as §4, §2, §3

SMILES | IC50 [1] | Selectivity index (SI) [1] | IC50 [2] | Selectivity index (SI) [2] | IC50 [3] | Selectivity index (SI) [3] | IC50 ([4]; Homo sapiens, read-out: IC50) | Selectivity index (SI) [4] | IC50 ([5]; Homo sapiens, SKW3, 72 h) | Selectivity index (SI) [5] | IC50 [6] | Selectivity index (SI) [6] | IC50 [7] | Selectivity index (SI) [7] | IC50 [8] | Selectivity index (SI) [9] | Selectivity index (SI) [10] | Selectivity index (SI) [11] | IC50 [4] | IC50 [5]
COc1ccccc1C(=O)NN=Cc1cccc(OC)c1O [Compound 1, N′-(2-hydroxy-3-methoxybenzylidene)-2-methoxybenzohydrazide] | 11.2 ± 2.1 µM | >9 | 33.5 ± 3.4 µM | >3 | 20.4 ± 2.9 µM | >5 | 50.5 ± 6.6 µM | >2 | 4.3 ± 0.5 µM | >23 | 30.1 ± 3.2 µM | >3 | 22 ± 2.8 µM | >5 | > 100 µM | >8 | >4 | >7 | – | –
COc1cccc(C(=O)NN=Cc2cccc(OC)c2O)c1 [Compound 2, N′-(2-hydroxy-3-methoxybenzylidene)-3-methoxybenzohydrazide] | 3.6 ± 0.3 µM | 5 | 2.7 ± 0.2 µM | 6 | 2.1 ± 0.1 µM | 8 | 5.9 ± 0.7 µM | 3 | 1.4 ± 0.1 µM | 12 | 25.6 ± 2.8 µM | 1 | 26.9 ± 3.3 µM | 1 | 16.8 ± 2.3 µM | 7 | 1 | 5 | – | –
COc1ccc(C(=O)NN=Cc2cccc(OC)c2O)cc1 [Compound 3, N′-(2-hydroxy-3-methoxybenzylidene)-4-methoxybenzohydrazide] | 2.4 ± 0.1 µM | >42 | 2.7 ± 0.2 µM | >19 | 2.8 ± 0.4 µM | >36 | > 100 µM | >1 | 2.7 ± 0.3 µM | >37 | 36.1 ± 4.4 µM | >3 | 23.5 ± 3.4 µM | >4 | > 100 µM | >27 | >4 | >20 | not active | –
COc1cccc(C(=O)NN=Cc2ccc(OC)cc2O)c1 [Compound 4, N′-(2-hydroxy-4-methoxybenzylidene)-3-methoxybenzohydrazide] | 2.1 ± 0.2 µM | 4 | 2.2 ± 0.3 µM | 4 | 1.6 ± 0.2 µM | 5 | 4.5 ± 0.4 µM | 2 | < 1 µM | 11 | 23.3 ± 2.7 µM | – | 19.8 ± 3.1 µM | – | 8.6 ± 1.5 µM | 5 | – | 4 | – | 0.8 ± 0.1 µM
COc1ccc(C(=O)NN=Cc2ccc(OC)cc2O)cc1 [Compound 5, N′-(2-hydroxy-4-methoxybenzylidene)-4-methoxybenzohydrazide] | 4.7 ± 0.5 µM | 2 | 1.4 ± 0.2 µM | 7 | 1.5 ± 0.1 µM | 7 | 1.1 ± 0.2 µM | 9 | < 1 µM | 21 | 21.3 ± 1.9 µM | – | 60.1 ± 5 µM | – | 10.4 ± 1.1 µM | 9 | – | 7 | – | 0.5 ± 0.1 µM
